Laboratory results taken from patent US20150209428A1, “PHARMACEUTICAL COMPOSITIONS FOR TOPICAL DELIVERY OF PHOTOSENSITIZERS AND USES THEREOF” (DERMIRA, INC., priority 2012, published 2015).

What was measured:
[1] = Apparent solubility of lemuteporfin in various solvents (HPLC); type: physicochemical
Description: The solubility of lemuteporfin in various solvent compositions is shown in the last column of Table 3. All values were obtained analytically by HPLC analysis.
Solubility results for lemuteporfin indicated maximum solubility in solvent-based formulations containing primarily benzyl alcohol. The amount of lemuteporfin that can be solubilized in benzyl alcohol following heating is approximately 2.5% w/w. The addition of other solvents reduces solubility by approximately the amount of the new solvent introduced. Diethylene glycol monoethyl ether (DGME) is about 20% as efficient at dissolving lemuteporfin as benzyl alcohol.

[2] = Solubility of lemuteporfin in the LTS formulation (stirred, sampled, filtered); type: physicochemical; conditions: for Lemuteporfin content (% w/w), solubility in the formulation of Table 5: filtered
Protocol: The solution was stirred and samples were removed at various time points, and then filtered to determine the amount of undissolved lemuteporfin. The amount of lemuteporfin that dissolved was approximately 0.048%.
Studies were conducted to determine the effect of certain of the LTS excipients on the solubility of lemuteporfin.

lemuteporfin
efficiency of DGME at dissolving lemuteporfin relative to benzyl alcohol ([1]; DGME versus benzyl alcohol): about 20% | amount of lemuteporfin that can be solubilized in benzyl alcohol ([1]; benzyl alcohol, following heating): approximately 2.5 % w/w | Apparent Solubility, % w/w Lemuteporfin ([1]; solvent % w/w: Benzyl Alcohol 30, Ethanol (190) 70): 0.455 % w/w | Apparent Solubility, % w/w Lemuteporfin ([1]; solvent % w/w: Benzyl Alcohol 30, Oleyl Alcohol 70): 0.166 % w/w | Apparent Solubility, % w/w Lemuteporfin ([1]; solvent % w/w: Benzyl Alcohol 40, Isopropyl Myristate 60): 0.090 % w/w | Apparent Solubility, % w/w Lemuteporfin ([1]; solvent % w/w: Benzyl Alcohol 50, Ethanol (190) 50): 0.453 % w/w | Apparent Solubility, % w/w Lemuteporfin ([1]; solvent % w/w: Benzyl Alcohol 50, Oleic Acid 50): 0.409 % w/w | Apparent Solubility, % w/w Lemuteporfin ([1]; solvent % w/w: Benzyl Alcohol 50, Oleyl Alcohol 50): 0.228 % w/w | Apparent Solubility, % w/w Lemuteporfin ([1]; solvent % w/w: Benzyl Alcohol 50, Propylene Glycol 50): 0.494 % w/w | Apparent Solubility, % w/w Lemuteporfin ([1]; solvent % w/w: Benzyl Alcohol 90, Isopropyl Myristate 10): 2.30 % w/w | Apparent Solubility, % w/w Lemuteporfin ([1]; solvent % w/w: Benzyl Alcohol 90, Oleic Acid 10): 2.33 % w/w | Apparent Solubility, % w/w Lemuteporfin ([1]; solvent % w/w: Benzyl Alcohol 90, Oleyl Alcohol 5, Oleic Acid 5): 2.22 % w/w | Apparent Solubility, % w/w Lemuteporfin ([1]; solvent % w/w: Benzyl Alcohol 90, Oleyl Alcohol 10): 2.24 % w/w | Apparent Solubility, % w/w Lemuteporfin ([1]; solvent % w/w: Benzyl Alcohol 100): 2.55 % w/w | Apparent Solubility, % w/w Lemuteporfin ([1]; solvent % w/w: DGME 45, Benzyl Alcohol 45, Oleyl Alcohol 5, Oleic Acid 5): 1.373 % w/w | Apparent Solubility, % w/w Lemuteporfin ([1]; solvent % w/w: DGME 50, Benzyl Alcohol 15, Oleic Acid 35): 0.230 % w/w | Apparent Solubility, % w/w Lemuteporfin ([1]; solvent % w/w: DGME 50, Benzyl Alcohol 15, Oleyl Alcohol 35): 0.200 % w/w | Apparent Solubility, % w/w Lemuteporfin ([1]; solvent % w/w: DGME 50, Benzyl Alcohol 50): 1.57 % w/w | Apparent Solubility, % w/w Lemuteporfin ([1]; solvent % w/w: DGME 52, Benzyl Alcohol 16, Oleyl Alcohol 16, Oleic Acid 16): 0.210 % w/w | Apparent Solubility, % w/w Lemuteporfin ([1]; solvent % w/w: DGME 65, Oleyl Alcohol 17.5, Oleic Acid 17.5): 0.271 % w/w | Apparent Solubility, % w/w Lemuteporfin ([1]; solvent % w/w: DGME 65, Oleyl Alcohol 35): 0.430 % w/w | Apparent Solubility, % w/w Lemuteporfin ([1]; solvent % w/w: DGME 90, Isopropyl Myristate 10): 0.430 % w/w | Apparent Solubility, % w/w Lemuteporfin ([1]; solvent % w/w: DGME 90, Oleyl Alcohol 5, Oleic Acid 5): 0.420 % w/w | Apparent Solubility, % w/w Lemuteporfin ([1]; solvent % w/w: DGME 90, Oleyl Alcohol 10): 0.420 % w/w | solubility of lemuteporfin in LTS solution system ([2]; isopropyl alcohol removed (data not shown)): 0.07 % w/w | amount of lemuteporfin that dissolved in the Table 5 components ([2]; room temperature): approximately 0.048% | Lemuteporfin content (% w/w), solubility in the formulation of Table 5 ([2]; room temperature, time point 0.17 hours): 0.0241 % w/w | Lemuteporfin content (% w/w), solubility in the formulation of Table 5 ([2]; room temperature, time point 2.47 hours): 0.0482 % w/w | Lemuteporfin content (% w/w), solubility in the formulation of Table 5 ([2]; room temperature, time point 4.37 hours): 0.0453 % w/w | Lemuteporfin content (% w/w), solubility in the formulation of Table 5 ([2]; room temperature, time point 6.37 hours): 0.0463 % w/w | Lemuteporfin content (% w/w), solubility in the formulation of Table 5 ([2]; room temperature, time point 23.5 hours): 0.0370 % w/w | solubility of lemuteporfin in LTS solution system ([2]; with isopropyl alcohol (data not shown)): approximately 0.03 % w/w | solubility of lemuteporfin in LTS solution system ([2]; with polysorbate 80 (data not shown)): 0.037 % w/w | solubility of lemuteporfin in LTS solution system ([2]; without polysorbate 80 (data not shown)): 0.027 % w/w
